Measured values published in patent US20060057154A1, “Compositions for inducing of immunotolerance” (Universiteit Utrecht Holding B.V., priority 2003, published 2006).

Tests used:
[1] = tested on: OVA-sensitized BALB/c mice; assay: Airway responsiveness to methacholine in vivo (whole-body plethysmography, Penh) in mouse model of allergic asthma; parameters: species or system mouse (BALB/c)
Experimental: (§1) Animals. Animal care and use were performed in accordance with the guidelines of the Dutch Committee of Animal Experiments. Specific pathogen-free male BALB/c mice (5 to 6 weeks old) were purchased from Charles River (Maastricht, The Netherlands) and housed in macrolon cages in a laminar flow cabinet and provided with food and water ad libitum.
Sensitization, treatment and challenge. Mice (6 to 8 weeks old) were sensitized intraperitoneally (i.p.) on days 0 and 7 with 10 μg ovalbumin (OVA, grade V, Sigma-Aldrich) in 0.1 ml alum (Pierce, Rockford, Ill.). Two weeks after the last sensitization, the mice were divided into six groups. The sham-immunotherapy and the OVA-immunotherapy groups were treated with three s.c. injections of, respectively, 0.2 ml pyrogen-free saline (B. Braun, Melsungen, Germany) or 1 mg OVA in 0.2 ml pyrogen-free saline on alternate days. In three groups, OVA-immunotherapy was co-injected with 0.1 μg, 0.03 μg or 0.01 μg 1α,25-dihydroxyvitamin D3 (1α,25(OH)2 VitD3), a selective inhibitor of NF-κb. […]
Measurement of airway responsiveness in vivo. Airway responsiveness to methacholine was measured after treatment but before OVA challenge (pre-measurement) and 24 hours after the last OVA challenge. Airway responsiveness was measured in conscious, unrestrained mice using barometric whole-body plethysmography by recording respiratory pressure curves (Buxco, EMKA Technologies, Paris, France) in response to inhaled methacholine (acetyl-β-methylcholine chloride, Sigma-Aldrich). […] Briefly, mice were placed in a whole-body chamber and basal readings were determined for three minutes. Aerosolized saline, followed by doubling concentrations of methacholine (ranging from 3.13-25 mg/ml in saline), were nebulized for three minutes, and readings were determined for three minutes after each nebulization.
Statistical analysis. All data are expressed as mean±standard error of mean (SEM). The airway dose-response curves to methacholine were statistically analyzed by a general linear model of repeated measurements followed by post-hoc comparison between groups. […]

[2] = tested on: OVA-sensitized BALB/c mice; assay: OVA-specific IgE levels in serum (sandwich ELISA) in mouse model of allergic asthma; format: in vivo, mouse (BALB/c)
Experimental: as §1
(§2) Sensitization, treatment and challenge. Mice (6 to 8 weeks old) were sensitized intraperitoneally (i.p.) on days 0 and 7 with 10 μg ovalbumin (OVA, grade V, Sigma-Aldrich) in 0.1 ml alum (Pierce, Rockford, Ill.). Two weeks after the last sensitization, the mice were divided into six groups. The sham-immunotherapy and the OVA-immunotherapy groups were treated with three s.c. injections of, respectively, 0.2 ml pyrogen-free saline (B. Braun, Melsungen, Germany) or 1 mg OVA in 0.2 ml pyrogen-free saline on alternate days. In three groups, OVA-immunotherapy was co-injected with 0.1 μg, 0.03 μg or 0.01 μg 1α,25-dihydroxyvitamin D3 (1α,25(OH)2 VitD3), a selective inhibitor of NF-κb. One group was treated with sham-immunotherapy and combined with co-injection of 0.1 μg 1α,25(OH)2 VitD3. Ten days after treatment, mice were exposed to three OVA inhalation challenges (10 mg/ml in saline) for 20 minutes every third day.
Determination of OVA-specific IgE levels in serum. From each mouse, serum was obtained after treatment but before OVA challenge (pre-measurement) by a small incision in the tail vein. After measurement of airway responsiveness in vivo, mice were sacrificed by i.p. injection of 1 ml 10% urethane in saline and were bled by cardiac puncture. […] Serum levels of OVA-specific IgE were measured by sandwich ELISA as described previously (Deurloo et al., 2001).
Statistical analysis. All data are expressed as mean±standard error of mean (SEM). The airway dose-response curves to methacholine were statistically analyzed by a general linear model of repeated measurements followed by post-hoc comparison between groups. […] All other data were analyzed using a Student's t test (2-tailed, homosedastic). […]

[3] = tested on: OVA-sensitized BALB/c mice; assay: Cellular composition of bronchoalveolar lavage fluid (eosinophil number) in mouse model of allergic asthma; format: in vivo, mouse (BALB/c)
Experimental: as §1, §2
In a second series of experiments, OVA-immunotherapy, as described above, was carried out using a sub-optimal amount of 100 μg OVA in saline for OVA-immunotherapy. OVA-immunotherapy was either given alone or in combination with 0.01 μg 1α,25(OH)2 VitD3. Sham-immunotherapy alone or in combination with 0.01 μg 1α,25(OH)2 VitD3 served as control groups.
Analysis of the cellular composition of the bronchoalveolar lavage fluid. Bronchoalveolar lavage (BAL) was performed immediately after bleeding of the mice by lavage of the airways through a tracheal cannule five times with 1 ml saline (37° C.). Cells in the BALF were centrifuged and resuspended in cold PBS. The total number of cells in the BAL was determined using a Bürker-Türk counting chamber (Karl Hecht Assistant KG, Sondheim/Röhm, Germany). For differential BAL cell counts, cytospin preparations were made (15×g, five minutes, 4° C., Kendro Heraues Instruments, Asheville, N.C.). Next, cells were fixed and stained with Diff-Quick (Dade A. G., Düdingen, Switzerland). Per cytospin, 200 cells were counted and differentiated into mononuclear cells, eosinophils, and neutrophils by standard morphology and staining characteristics.
Statistical analysis. All data are expressed as mean±standard error of mean (SEM). The airway dose-response curves to methacholine were statistically analyzed by a general linear model of repeated measurements followed by post-hoc comparison between groups. Data were log transformed before analysis to equalize variances in all groups. All other data were analyzed using a Student's t test (2-tailed, homosedastic). Results were considered statistically significant at the p<0.05 level.

[4] = co-injection of 0.01 μg with OVA-immunotherapy (1 mg OVA), compared to OVA-immunotherapy alone

Row | Molecule | AHR to methacholine after OVA inhalation challenge ([1]; co-injection of 0.1 μg with sham-immunotherapy (saline)) | AHR to methacholine after OVA inhalation challenge ([1]; co-injection s.c. of 0.1, 0.03 or 0.01 μg (all doses used) with OVA-immunotherapy (1 mg OVA), compared to OVA-IT alone, P<0.05) | Serum levels of OVA-specific IgE after OVA inhalation challenge [2, 4] | Serum levels of OVA-specific IgE after OVA inhalation challenge ([2]; co-injection of 0.1 μg with sham-immunotherapy, compared to sham-immunotherapy alone) | Number of BALF eosinophils after OVA inhalation challenge [3, 4] | Number of BALF eosinophils after OVA inhalation challenge ([3]; first series, co-injection of 0.1 μg with sham-immunotherapy) | Number of BALF eosinophils after OVA inhalation challenge ([3]; second series, co-injection of 0.01 μg with sham-immunotherapy) | Number of BALF eosinophils after OVA inhalation challenge ([3]; second series, co-injection of 0.01 μg with sub-optimal OVA-immunotherapy (100 μg OVA), compared to OVA-immunotherapy alone) | AHR to methacholine after OVA inhalation challenge ([1]; OVA-immunotherapy alone (3 s.c. injections of 1 mg OVA), compared to sham-treated mice, P<0.05) | Serum levels of OVA-specific IgE after OVA inhalation challenge ([2]; OVA-immunotherapy alone (1 mg OVA), compared to sham-treated OVA-challenged mice) | Number of BALF eosinophils after OVA inhalation challenge ([3]; OVA-immunotherapy alone (1 mg OVA), compared to sham-treated mice) | Number of BALF eosinophils after OVA inhalation challenge ([3]; second series, sub-optimal OVA-immunotherapy alone (100 μg OVA), compared to sham-treated mice)
1 | C=C1/C(=C\C=C2/CCC[C@]3(C)[C@@H]([C@H](C)CCCC(C)(C)O)CC[C@@H]23)C[C@@H](O)C[C@@H]1O [1α,25(OH)2 VitD3, 1α,25-dihydroxyvitamin D3] | did not affect AHR | significantly potentiated the reduction of AHR to methacholine | significantly increased the reduction of serum IgE levels | did not affect serum IgE levels | significantly increased the reduction of BALF eosinophil numbers | did not significantly affect BAL eosinophil number | did not significantly affect BAL eosinophil number | significantly increased the reduction of BALF eosinophil numbers | – | – | – | –
2 | OVA-immunotherapy: three s.c. injections of 1 mg (or sub-optimal 100 μg) ovalbumin (OVA, grade V) in pyrogen-free saline on alternate days | – | – | – | – | – | – | – | – | partially reduced | significantly reduced | significantly reduced | significantly reduced
